ChEMBL document CHEMBL1201862, “PubChem BioAssay data set” (2004)
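Compound exposure: 48 hours, 5 concentrations, 96-well plates. GI50: concentration for 50% inhibition of growth.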 The source made the active and inactive calls. Rule as the data show it: active = GI50 up to about 1.1 µM and inactive = higher.

Tests used:
Assay in all cases: NCI tumour cell line growth inhibition, 48 h
RXF 393 = system: RXF 393
T47D = system: T47D
OVCAR-5 = system: OVCAR-5
NCI-H460 = system: NCI-H460
SF-268 = system: SF-268
SK-OV-3 = system: SK-OV-3
PC-3 = system: PC-3
LOX IMVI = system: LOX IMVI
SF-539 = system: SF-539
HCT-116 = system: HCT-116
786-0 = system: 786-0
SNB-19 = system: SNB-19
HT-29 = system: HT-29
NCI-H226 = system: NCI-H226
K562 = system: K562
TK-10 = system: TK-10
UACC-62 = system: UACC-62
OVCAR-8 = system: OVCAR-8
CCRF-CEM = system: CCRF-CEM
MOLT-4 = system: MOLT-4

Measured: GI50

COc1ccc2c(c1)CC[C@@H]1C2CC[C@]2(C)C(=C=CP(=O)(O)O)CCC12 (stereo partly specified)
inactive: RXF 393 > 100 µM | T47D > 100 µM | OVCAR-5 > 100 µM | NCI-H460 > 100 µM | SF-268 > 100 µM | SK-OV-3 > 100 µM | PC-3 > 100 µM | LOX IMVI > 100 µM | SF-539 > 100 µM | HCT-116 > 100 µM | 786-0 > 100 µM | SNB-19 > 100 µM | HT-29 > 100 µM | NCI-H226 > 100 µM | K562 > 100 µM | TK-10 > 100 µM | UACC-62 > 100 µM | OVCAR-8 > 100 µM

O=C1OC2(CCCCC2)C(Oc2ccc(Cl)cc2)=C1F
inactive: RXF 393 61.9 µM | T47D 37.2 µM | OVCAR-5 74 µM | NCI-H460 41.1 µM | SF-268 54 µM | SK-OV-3 > 100 µM | PC-3 42.8 µM | LOX IMVI 27.9 µM | SF-539 > 100 µM | HCT-116 35.7 µM | CCRF-CEM 29.7 µM | 786-0 48.3 µM | SNB-19 88.7 µM | MOLT-4 20.3 µM | HT-29 26.8 µM | K562 30.6 µM | TK-10 85.1 µM | UACC-62 22.1 µM | OVCAR-8 51.9 µM

CC1(C)CC(=O)c2c(-c3ccc(Cl)cc3)c(C#N)c(=S)n(C3OC(CO)C(O)C(O)C3O)c2C1 (stereo unspecified)
inactive: RXF 393 36.2 µM | T47D 18.6 µM | OVCAR-5 > 100 µM | NCI-H460 30.3 µM | SF-268 48.3 µM | PC-3 17.2 µM | LOX IMVI 20.1 µM | SF-539 25.4 µM | HCT-116 16 µM | CCRF-CEM 26.2 µM | 786-0 27.5 µM | SNB-19 40.3 µM | MOLT-4 25 µM | HT-29 26.7 µM | NCI-H226 20.9 µM | K562 13.6 µM | TK-10 53.3 µM | UACC-62 16.8 µM | OVCAR-8 35.7 µM

CCOC(=O)NC(C(C(=O)OCC)C(=O)OCC)(C(F)(F)F)C(F)(F)F
inactive: RXF 393 > 100 µM | T47D > 100 µM | OVCAR-5 > 100 µM | NCI-H460 > 100 µM | SF-268 > 100 µM | PC-3 > 100 µM | LOX IMVI > 100 µM | SF-539 > 100 µM | HCT-116 > 100 µM | CCRF-CEM > 100 µM | 786-0 > 100 µM | SNB-19 > 100 µM | MOLT-4 > 100 µM | HT-29 > 100 µM | NCI-H226 > 100 µM | K562 > 100 µM | TK-10 > 100 µM | UACC-62 > 100 µM | OVCAR-8 > 100 µM

COC(=O)CCc1ccc2c(c1)CC1(Cc3ccccc3C1)C2
inactive: RXF 393 > 100 µM | T47D > 100 µM | OVCAR-5 > 100 µM | SK-OV-3 > 100 µM | PC-3 > 100 µM | LOX IMVI > 100 µM | SF-539 > 100 µM | HCT-116 95.1 µM | CCRF-CEM 34.6 µM | 786-0 > 100 µM | MOLT-4 77.1 µM | HT-29 > 100 µM | NCI-H226 > 100 µM | K562 > 100 µM | TK-10 > 100 µM | UACC-62 57.3 µM | OVCAR-8 > 100 µM

O=c1[nH]nc(Cc2ccccc2)n1/N=C/c1ccco1
inactive: RXF 393 24 µM | T47D > 100 µM | OVCAR-5 80 µM | NCI-H460 > 100 µM | SF-268 > 100 µM | SK-OV-3 > 100 µM | PC-3 > 100 µM | LOX IMVI > 100 µM | SF-539 > 100 µM | HCT-116 > 100 µM | CCRF-CEM > 100 µM | 786-0 > 100 µM | SNB-19 > 100 µM | MOLT-4 99.5 µM | HT-29 > 100 µM | NCI-H226 > 100 µM | K562 > 100 µM | UACC-62 > 100 µM | OVCAR-8 > 100 µM

O=C(O)C(Cc1cc(I)c(O)c(I)c1)C1CCCCC1 (stereo unspecified)
inactive: RXF 393 34.2 µM | T47D 29.9 µM | OVCAR-5 49.2 µM | NCI-H460 18.1 µM | SF-268 36.2 µM | PC-3 18.3 µM | LOX IMVI 34 µM | HCT-116 26.5 µM | CCRF-CEM 51.1 µM | 786-0 51.9 µM | SNB-19 35.6 µM | MOLT-4 28.4 µM | HT-29 30.8 µM | NCI-H226 61.5 µM | K562 66.2 µM | TK-10 24 µM | UACC-62 33.1 µM | OVCAR-8 38.6 µM

N=C(N)Nc1ccc(CC(N)C(=O)O)cc1 (stereo unspecified)
inactive: RXF 393 > 12.5 µM | T47D > 12.5 µM | OVCAR-5 > 12.5 µM | SF-268 > 12.5 µM | SK-OV-3 > 12.5 µM | PC-3 > 12.5 µM | LOX IMVI > 12.5 µM | HCT-116 > 12.5 µM | CCRF-CEM > 12.5 µM | 786-0 > 12.5 µM | MOLT-4 > 12.5 µM | HT-29 > 12.5 µM | NCI-H226 > 12.5 µM | K562 > 12.5 µM | TK-10 > 12.5 µM | UACC-62 > 12.5 µM | OVCAR-8 > 12.5 µM
